Test: Storage stability of clopidogrel solution at room temperature and at 40°
Type: physicochemical

COC(=O)[C@H](c1ccccc1Cl)N1CCc2sccc2C1 [clopidogrel]
ability of solvent to form a stable solution of clopidogrel (D5W (5% dextrose in water)): not capable of forming a stable solution | ability of solvent to form a stable solution of clopidogrel (D50W (50% dextrose in water), room temperature and 40°): capable of forming a stable solution
